Experimental findings from ChEMBL document CHEMBL4665730, “Discovery of nonpeptide 3,4-dihydroquinazoline-4-carboxamides as potent and selective sst2 agonists” (Bioorg Med Chem Lett, 2020) are described below.

For orientation: bioavailability means the share of a dose that reaches the circulation, judged against a reference dose that is usually intravenous. Read a low bioavailability as poor availability.

In data set [1] the target is T1, Somatostatin receptor type 2 (Homo sapiens, UniProt P30874). Nature of the data set: Agonist activity at human SST2 expressed in CHO-K1 cells assessed as reduction in NKH477-induced intracellular cAMP accumulation. The format is functional, cell-based. In general terms: cAMP levels reflect the balance of adenylyl cyclase and phosphodiesterase activity.
Data set [2] has as its target T2, Cytochrome P450 3A4 (Homo sapiens, UniProt P08684). Nature of the data set: Inhibition of CYP3A4 (unknown origin) at 10 uM. The format is ADME.
The target in data set [3] is Somatostatin receptor type 3 (Homo sapiens, UniProt P32745). Nature of the data set: Agonist activity at SST3 (unknown origin).
In another data set the target is Cytochrome P450 2C9 (Homo sapiens, UniProt P11712). Briefly: Inhibition of CYP2C9 (unknown origin). The format is ADME.
Data set [4] has as its target Somatostatin receptor type 5 (Homo sapiens, UniProt P35346). Briefly: Agonist activity at SST5 (unknown origin).
Data set [5] addresses Somatostatin receptor type 1 (Homo sapiens, UniProt P30872). Nature of the data set: Agonist activity at SST1 (unknown origin).
In the next data set the target is Cytochrome P450 2C19 (Homo sapiens, UniProt P33261). Briefly: Inhibition of CYP2C19 (unknown origin). The format is ADME.
Data set [6] deals with Voltage-gated inwardly rectifying potassium channel KCNH2 (Homo sapiens, UniProt Q12809). Nature of the data set: Inhibition of human ERG expressed in HEK293 cells. Type of data set: cell-based.
The target of a further data set is Cytochrome P450 2D6 (Homo sapiens, UniProt P10635). Briefly: Inhibition of CYP2D6 (unknown origin). Type of data set: ADME.
Data set [7] has as its target T1, Somatostatin receptor type 2. Nature of the data set: Agonist activity at SST2 (unknown origin).
The target of data set [8] is Somatostatin receptor type 4 (Homo sapiens, UniProt P31391). Briefly: Agonist activity at SST4 (unknown origin).
Data set [9] addresses T2, Cytochrome P450 3A4. Briefly: Inhibition of CYP3A4 (unknown origin). The format is ADME.
Data set [10] deals with Somatostatin receptor type 2 (Rattus norvegicus, UniProt P30680). Briefly: Agonist activity at rat SST2.
Data set [11] in a line: Oral bioavailability in Sprague-Dawley rat at 10 mg/kg. The format is ADME, organism-based. Particulars: in vivo; call rule not given here.

Each structure is given as a SMILES string.

Sequence of Somatostatin receptor type 5 (P35346 whole entry): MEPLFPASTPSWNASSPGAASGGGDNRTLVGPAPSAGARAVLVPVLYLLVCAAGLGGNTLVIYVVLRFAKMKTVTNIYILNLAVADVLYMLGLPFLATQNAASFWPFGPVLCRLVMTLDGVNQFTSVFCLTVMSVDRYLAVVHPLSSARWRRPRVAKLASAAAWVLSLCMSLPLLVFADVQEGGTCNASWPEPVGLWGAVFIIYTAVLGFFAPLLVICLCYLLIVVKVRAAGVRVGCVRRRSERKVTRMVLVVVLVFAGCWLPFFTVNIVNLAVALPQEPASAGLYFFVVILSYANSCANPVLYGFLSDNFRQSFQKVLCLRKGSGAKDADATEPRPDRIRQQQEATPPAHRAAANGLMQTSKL
Sequence of Voltage-gated inwardly rectifying potassium channel KCNH2 (Q12809 whole entry): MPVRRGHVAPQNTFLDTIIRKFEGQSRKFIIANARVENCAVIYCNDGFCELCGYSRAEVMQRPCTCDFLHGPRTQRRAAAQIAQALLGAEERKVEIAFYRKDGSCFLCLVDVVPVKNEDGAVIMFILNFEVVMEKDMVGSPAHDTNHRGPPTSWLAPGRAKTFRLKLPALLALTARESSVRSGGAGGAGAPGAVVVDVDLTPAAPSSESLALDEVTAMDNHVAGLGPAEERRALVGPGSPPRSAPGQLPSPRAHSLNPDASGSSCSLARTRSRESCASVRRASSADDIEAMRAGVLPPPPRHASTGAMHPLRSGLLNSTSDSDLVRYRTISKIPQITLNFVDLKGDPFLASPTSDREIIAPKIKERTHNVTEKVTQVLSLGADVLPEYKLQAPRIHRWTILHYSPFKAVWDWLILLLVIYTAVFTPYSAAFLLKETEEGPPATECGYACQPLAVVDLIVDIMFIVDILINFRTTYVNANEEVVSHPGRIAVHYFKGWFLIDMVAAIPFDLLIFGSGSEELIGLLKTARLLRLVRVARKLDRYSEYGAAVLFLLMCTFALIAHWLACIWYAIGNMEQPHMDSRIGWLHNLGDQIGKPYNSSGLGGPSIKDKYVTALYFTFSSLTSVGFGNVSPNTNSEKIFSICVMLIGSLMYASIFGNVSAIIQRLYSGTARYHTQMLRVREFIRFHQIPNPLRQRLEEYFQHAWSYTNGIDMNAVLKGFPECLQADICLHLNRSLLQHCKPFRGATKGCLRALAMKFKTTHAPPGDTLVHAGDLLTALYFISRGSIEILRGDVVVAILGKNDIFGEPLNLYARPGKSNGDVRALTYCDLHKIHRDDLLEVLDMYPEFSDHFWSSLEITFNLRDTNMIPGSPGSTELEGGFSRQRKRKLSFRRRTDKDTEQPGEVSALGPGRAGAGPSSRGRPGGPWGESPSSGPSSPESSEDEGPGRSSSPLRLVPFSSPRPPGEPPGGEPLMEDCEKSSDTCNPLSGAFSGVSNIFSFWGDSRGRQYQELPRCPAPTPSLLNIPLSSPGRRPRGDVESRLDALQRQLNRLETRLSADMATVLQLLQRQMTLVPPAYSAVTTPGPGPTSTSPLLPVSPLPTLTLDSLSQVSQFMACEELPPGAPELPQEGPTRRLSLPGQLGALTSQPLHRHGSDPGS
Sequence of Somatostatin receptor type 3 (P32745 whole entry): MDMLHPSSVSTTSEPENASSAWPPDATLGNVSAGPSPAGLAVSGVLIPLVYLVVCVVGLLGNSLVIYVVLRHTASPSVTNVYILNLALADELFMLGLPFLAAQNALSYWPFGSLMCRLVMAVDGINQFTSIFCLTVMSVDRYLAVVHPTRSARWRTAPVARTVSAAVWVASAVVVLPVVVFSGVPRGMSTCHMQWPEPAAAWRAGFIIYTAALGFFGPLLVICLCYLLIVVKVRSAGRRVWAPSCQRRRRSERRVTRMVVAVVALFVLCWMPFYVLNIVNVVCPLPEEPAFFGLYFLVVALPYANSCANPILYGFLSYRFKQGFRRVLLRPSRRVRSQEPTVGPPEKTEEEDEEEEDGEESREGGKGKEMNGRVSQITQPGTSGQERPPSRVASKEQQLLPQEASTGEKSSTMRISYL
Sequence of Somatostatin receptor type 1 (P30872 whole entry): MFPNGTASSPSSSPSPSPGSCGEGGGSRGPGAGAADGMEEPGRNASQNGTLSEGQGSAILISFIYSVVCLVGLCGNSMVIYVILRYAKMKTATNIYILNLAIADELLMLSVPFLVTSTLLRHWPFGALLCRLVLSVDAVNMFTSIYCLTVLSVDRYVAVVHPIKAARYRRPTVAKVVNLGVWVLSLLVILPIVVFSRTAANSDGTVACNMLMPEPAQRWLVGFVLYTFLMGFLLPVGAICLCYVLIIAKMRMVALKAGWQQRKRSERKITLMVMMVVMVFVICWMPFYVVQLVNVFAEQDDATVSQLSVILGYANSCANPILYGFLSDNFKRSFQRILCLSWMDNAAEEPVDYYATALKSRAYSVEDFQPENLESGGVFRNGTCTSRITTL
Sequence of Somatostatin receptor type 4 (P31391 whole entry): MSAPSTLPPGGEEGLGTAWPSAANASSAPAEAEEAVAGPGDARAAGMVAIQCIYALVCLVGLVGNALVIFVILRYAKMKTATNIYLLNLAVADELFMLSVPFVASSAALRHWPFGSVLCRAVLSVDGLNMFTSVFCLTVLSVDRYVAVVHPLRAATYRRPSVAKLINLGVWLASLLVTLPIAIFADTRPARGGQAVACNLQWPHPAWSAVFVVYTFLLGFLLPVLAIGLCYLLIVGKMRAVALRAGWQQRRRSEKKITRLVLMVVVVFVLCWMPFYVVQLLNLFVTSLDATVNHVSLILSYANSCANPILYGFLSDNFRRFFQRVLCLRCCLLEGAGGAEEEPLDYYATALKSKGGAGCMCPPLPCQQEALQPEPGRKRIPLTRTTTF
T1 sequence (P30874 whole entry): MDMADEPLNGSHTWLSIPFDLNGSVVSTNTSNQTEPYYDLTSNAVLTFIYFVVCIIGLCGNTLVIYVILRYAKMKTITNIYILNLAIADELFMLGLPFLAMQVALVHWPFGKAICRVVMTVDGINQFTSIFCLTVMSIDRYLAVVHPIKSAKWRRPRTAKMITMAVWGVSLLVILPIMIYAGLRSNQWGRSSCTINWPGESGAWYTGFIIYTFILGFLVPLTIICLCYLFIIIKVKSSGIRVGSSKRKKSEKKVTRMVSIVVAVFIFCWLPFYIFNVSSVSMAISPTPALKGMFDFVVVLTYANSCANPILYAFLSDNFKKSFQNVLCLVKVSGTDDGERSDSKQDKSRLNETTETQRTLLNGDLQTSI
T2 sequence (P08684 whole entry): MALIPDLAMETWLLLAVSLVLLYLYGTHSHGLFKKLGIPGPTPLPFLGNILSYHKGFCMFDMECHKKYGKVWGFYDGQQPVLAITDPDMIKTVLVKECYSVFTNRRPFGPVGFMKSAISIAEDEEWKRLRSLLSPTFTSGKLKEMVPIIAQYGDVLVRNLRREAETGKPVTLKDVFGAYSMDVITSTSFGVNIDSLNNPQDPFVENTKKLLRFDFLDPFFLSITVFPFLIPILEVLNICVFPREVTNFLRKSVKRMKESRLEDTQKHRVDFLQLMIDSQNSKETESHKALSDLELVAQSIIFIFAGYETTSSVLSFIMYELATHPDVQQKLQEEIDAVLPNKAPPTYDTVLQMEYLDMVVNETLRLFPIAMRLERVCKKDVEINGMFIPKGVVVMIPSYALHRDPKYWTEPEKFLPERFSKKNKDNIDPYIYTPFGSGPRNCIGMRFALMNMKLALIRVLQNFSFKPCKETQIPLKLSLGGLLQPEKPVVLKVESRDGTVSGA
Sequence of Cytochrome P450 2C9 (P11712 whole entry): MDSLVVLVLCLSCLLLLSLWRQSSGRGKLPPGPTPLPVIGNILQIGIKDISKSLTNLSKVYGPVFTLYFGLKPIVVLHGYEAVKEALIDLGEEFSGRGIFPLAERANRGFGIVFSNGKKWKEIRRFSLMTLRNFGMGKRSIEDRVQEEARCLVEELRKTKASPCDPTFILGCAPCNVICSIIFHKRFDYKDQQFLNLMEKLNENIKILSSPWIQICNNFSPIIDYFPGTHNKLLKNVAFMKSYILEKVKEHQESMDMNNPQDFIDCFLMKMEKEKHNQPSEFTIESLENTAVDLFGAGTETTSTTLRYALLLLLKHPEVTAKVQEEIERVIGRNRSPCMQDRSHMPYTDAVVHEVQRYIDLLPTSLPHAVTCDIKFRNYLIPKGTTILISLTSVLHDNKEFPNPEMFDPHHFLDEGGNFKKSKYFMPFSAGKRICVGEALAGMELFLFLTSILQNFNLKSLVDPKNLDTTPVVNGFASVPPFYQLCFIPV
Sequence of Cytochrome P450 2D6 (P10635 whole entry): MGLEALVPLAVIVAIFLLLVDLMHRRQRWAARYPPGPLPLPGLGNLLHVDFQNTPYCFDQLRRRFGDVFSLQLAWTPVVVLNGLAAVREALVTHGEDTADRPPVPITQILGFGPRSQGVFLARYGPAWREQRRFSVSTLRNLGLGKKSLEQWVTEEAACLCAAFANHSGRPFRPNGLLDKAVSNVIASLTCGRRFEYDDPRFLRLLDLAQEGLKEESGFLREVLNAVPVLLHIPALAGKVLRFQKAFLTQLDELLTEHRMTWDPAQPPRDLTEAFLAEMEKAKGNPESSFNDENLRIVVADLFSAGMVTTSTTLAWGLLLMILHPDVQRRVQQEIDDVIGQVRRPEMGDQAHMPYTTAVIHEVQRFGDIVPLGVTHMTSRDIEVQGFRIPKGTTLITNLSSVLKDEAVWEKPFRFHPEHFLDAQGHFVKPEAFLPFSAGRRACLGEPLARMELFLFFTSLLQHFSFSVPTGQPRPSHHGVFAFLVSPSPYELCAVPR
Sequence of Somatostatin receptor type 2 (Rattus norvegicus, UniProt P30680) (P30680 whole entry): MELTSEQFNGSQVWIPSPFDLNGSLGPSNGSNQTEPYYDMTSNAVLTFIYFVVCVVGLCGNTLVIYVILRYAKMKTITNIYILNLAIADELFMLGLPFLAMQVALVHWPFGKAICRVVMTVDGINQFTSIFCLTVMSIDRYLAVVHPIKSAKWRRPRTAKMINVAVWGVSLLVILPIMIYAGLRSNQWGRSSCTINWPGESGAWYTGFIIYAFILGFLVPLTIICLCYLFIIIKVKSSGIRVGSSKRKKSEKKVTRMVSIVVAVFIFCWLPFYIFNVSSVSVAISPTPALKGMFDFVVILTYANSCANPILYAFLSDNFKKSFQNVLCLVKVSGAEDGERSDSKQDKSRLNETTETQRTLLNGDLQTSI

On to `Cc1cc(Cl)cc(N2C=Nc3cc(C)c(-c4cccc(-c5nnn[nH]5)c4)cc3C2C(=O)N(C)C[C@@H]2CCCN2)c1` (stereo not given in full), for which the EC50 in [1] (cho-k1, read-out: EC50) was greater than 1 µM; in data set [1] (read-out: pEC50 (converted)), greater than 1 µM.
As to `Cc1cc(Cl)cc(N2C=Nc3cc(C)c(-c4cc(F)cc(F)c4)cc3C2C(=O)N(C)C[C@@H]2CCCN2)c1` (stereo not given in full), the EC50 in data set [1] (read-out: EC50) was determined as 0.0037 µM.
For the compound `Cc1cc(Cl)cc(N2C=Nc3cc(C)c(-c4cccc(F)c4O)cc3C2C(=O)N(C)C[C@@H]2CCCN2)c1` (stereo not given in full), the “inhibition (INH)” value is on record as “Active” on Cytochrome P450 3A4 [2], “Not Active” at Cytochrome P450 2C9, “Not Active” at Cytochrome P450 2C19 and “Not Active” against Cytochrome P450 2D6. In addition, the results for the EC50 in [3], in [4] and in [5] were 0.158 µM, greater than 1 µM and greater than 1 µM, respectively. The IC50 in data set [6] (read-out: pIC50 (converted)) is 5.01 µM.
Take `Cc1cc(F)cc(N2C=Nc3cc(C)c(-c4cccc(O)c4)cc3C2C(=O)N(C)C[C@@H]2CCCN2)c1` (stereo not given in full): the EC50 in [1] (read-out: EC50) is 0.00098 µM.
As for `Cc1cc(Cl)cc(N2C=Nc3cc(C)c(-c4ccc5[nH]c(=O)[nH]c5c4)cc3C2C(=O)N(C)C[C@@H]2CCCN2)c1` (stereo not given in full), in data set [1] (read-out: EC50), the EC50 was 0.0046 µM.
`CC[C@H](N)CN(C)C(=O)C1c2cc(-c3cccc(O)c3)c(C)cc2N=CN1c1cc(C)cc(C)c1` (stereo not given in full): the EC50 in [1] (read-out: EC50) came out at 0.0042 µM.
For the compound `Cc1cc(Cl)cc(N2C=Nc3cc(C)c(-c4cc(O)cc(F)c4)cc3C2C(=O)N(C)C[C@@H]2CCCN2)c1` (stereo not given in full), the EC50 in data set [3] is 0.00794 µM; in data set [1] (read-out: EC50) it was 0.00012 µM; in data set [7], 0.000126 µM; in data set [8], 0.251 µM; in data set [4] it was greater than 1 µM; in data set [5], greater than 1 µM. For the same compound, the IC50 in data set [6] (read-out: IC50) is less than 1 µM; in data set [6] (read-out: pIC50 (converted)), 0.631 µM.
For the compound `COc1cc(F)cc(-c2cc3c(cc2C)N=CN(c2cc(C)cc(Cl)c2)C3C(=O)N(C)C[C@@H]2CCCN2)c1` (stereo not given in full), the EC50 in [1] (read-out: EC50) is 0.0061 µM.
With `Cc1cc(Cl)cc(N2C=Nc3cc(C)c(-c4cc(O)cc(C#N)c4)cc3C2C(=O)N(C)C[C@@H]2CCCN2)c1` (stereo not given in full), in data set [1] (read-out: EC50), the EC50 turned out to be 0.00036 µM.
For `Cc1cc(C)cc(N2C=Nc3cc(Cl)c(-c4cccc(O)c4)cc3C2C(=O)NC[C@H](C)N)c1` (stereo not given in full), the EC50 was greater than 1 µM in data set [1] (cho-k1, read-out: EC50) and greater than 1 µM in [1] (read-out: pEC50 (converted)).
As for `Cc1cc(Cl)cc(N2C=Nc3cc(C)c(-c4ccccc4)cc3C2C(=O)N(C)C[C@@H]2CCCN2)c1` (stereo not given in full), the EC50 in data set [1] (read-out: EC50) amounted to 0.056 µM.
In the case of `Cc1cc(Cl)cc(N2C=Nc3cc(C)c(-c4cccc(C(F)(F)F)c4)cc3C2C(=O)N(C)C[C@@H]2CCCN2)c1` (stereo not given in full), the EC50 in data set [1] (read-out: EC50) is 0.053 µM.
Still for that read-out and setting: under `Cc1cc(Cl)cc(N2C=Nc3cc(C)c(-c4cccc(Cl)c4)cc3C2C(=O)N(C)C[C@@H]2CCCN2)c1` (stereo not given in full) stands 0.039 µM.
Consider `Cc1cc(Cl)cc(N2C=Nc3cc(C)c(-c4cncc(C#N)c4)cc3C2C(=O)N(C)C[C@@H]2CCCN2)c1` (stereo not given in full), for which, in [1] (read-out: EC50), the EC50 is 0.011 µM.
For `Cc1cc(Cl)cc(N2C=Nc3cc(C)c(-c4cccc(C#N)c4)cc3C2C(=O)N(C)C[C@@H]2CCCN2)c1` (stereo not given in full), in data set [1] (read-out: EC50), the EC50 amounted to 0.0054 µM.
Consider `Cc1cc(Cl)cc(N2C=Nc3cc(C)c(-c4cc(F)cc(C(N)=O)c4)cc3C2C(=O)N(C)C[C@@H]2CCCN2)c1` (stereo not given in full), for which the EC50 is 0.00794 µM in data set [3]; 0.00015 µM in data set [1] (read-out: EC50); 0.000158 µM in [7]; greater than 1 µM in data set [8]; greater than 1 µM in [4]; greater than 1 µM in data set [5]. The IC50 is 1 µM against Cytochrome P450 3A4 [9] and 2.51 µM in data set [6] (read-out: pIC50 (converted)).
For `Cc1cc(C)cc(N2C=Nc3cc(C)c(-c4cccc(O)c4)cc3C2C(=O)N(C)C[C@@H]2CCCN2)c1` (stereo not given in full), the EC50 in data set [1] (read-out: EC50) was 0.0013 µM.
In the case of `Cc1cc(Cl)cc(N2C=Nc3cc(C)c(-c4cc(F)cc(C#N)c4)cc3C2C(=O)N(C)C[C@@H]2CCCN2)c1` (stereo not given in full), the EC50 in [3] was 0.00398 µM; in [1] (read-out: EC50) it was 0.0013 µM; in data set [7] it was 0.00126 µM; in data set [8], 0.631 µM; in data set [5], greater than 1 µM.
Turning to `Cc1cc(Cl)cc(N2C=Nc3cc(C)c(-c4cc(F)ccc4O)cc3C2C(=O)N(C)C[C@@H]2CCCN2)c1` (stereo not given in full), the EC50 in data set [1] (read-out: EC50) was 0.0021 µM.
As to `Cc1cc(Cl)cc(N2C=Nc3cc(C)c(-c4cccc(F)c4O)cc3C2C(=O)N(C)CC2CCCN2)c1` (stereo not given), in data set [10], the EC50 was found to be 0.00054 µM. The compound further displayed a bioavailability in data set [11] of less than 5%.
As for `Cc1cc(Cl)cc(N2C=Nc3cc(C)c(-c4cc(O)ccc4F)cc3C2C(=O)N(C)C[C@@H]2CCCN2)c1` (stereo not given in full), the EC50 in data set [1] (read-out: EC50) is 0.0002 µM; in data set [7], 0.0002 µM; in data set [5] it was greater than 1 µM. Further, the IC50 in data set [6] (read-out: IC50) was less than 1 µM; in data set [6] (read-out: pIC50 (converted)), 0.501 µM.
Regarding `Cc1cc(Cl)cc(N2C=Nc3cc(C)c(-c4cccc(O)c4)cc3C2C(=O)N(C)C[C@@H]2CCCN2)c1` (stereo not given in full), in data set [1] (read-out: EC50), the EC50 stood at 0.00033 µM.
`CC[C@H](N)CN(C)C(=O)C1c2cc(-c3cccc(O)c3)c(Cl)cc2N=CN1c1cc(C)cc(C)c1` (stereo not given in full): the EC50 in data set [1] (read-out: EC50) amounted to 0.011 µM.
The same measure, in the same setting: under `Cc1cc(Cl)cc(N2C=Nc3cc(C)c(-c4cnn(C)c4)cc3C2C(=O)N(C)C[C@@H]2CCCN2)c1` (stereo not given in full) stands 0.17 µM; under `Cc1cc(Cl)cc(N2C=Nc3cc(C)c(-c4cncc(O)c4)cc3C2C(=O)N(C)C[C@@H]2CCCN2)c1` (stereo not given in full), 0.0081 µM.
With `Cc1cc(C)cc(N2C=Nc3ccc(-c4cccc(O)c4)cc3C2C(=O)N(C)C[C@H](C)N)c1` (stereo not given in full), the EC50 in data set [1] (cho-k1, read-out: EC50) is greater than 1 µM; in data set [1] (read-out: pEC50 (converted)), greater than 1 µM.
On to `Cc1cc(Cl)cc(N2C=Nc3cc(C)c(-c4cccc(NS(C)(=O)=O)c4)cc3C2C(=O)N(C)C[C@@H]2CCCN2)c1` (stereo not given in full), for which the EC50 in data set [1] (read-out: EC50) was 0.13 µM.
